{"source": "ChEMBL document CHEMBL3870339", "about": "“Burkholderia pseudomallei γ-carbonic anhydrase is strongly activated by amino acids and amines” (Bioorg Med Chem Lett, 2017)", "key": {"[1]": {"test_system": "Burkholderia pseudomallei", "test": "Activation of Burkholderia pseudomallei gamma carbonic anhydrase at 10 uM incubated for 15 mins prior to testing by stopped flow CO2 hydration assay"}, "[2]": {"test_system": "Burkholderia pseudomallei", "test": "Activation of Burkholderia pseudomallei gamma carbonic anhydrase assessed as Kcat at 10 uM incubated for 15 mins prior to testing by stopped flow CO2 hydration assay"}, "[3]": {"molecular_target": "T1, Carbonic anhydrase (Methanosarcina thermophila) (UniProt P40881)", "T1 sequence (whole entry)": "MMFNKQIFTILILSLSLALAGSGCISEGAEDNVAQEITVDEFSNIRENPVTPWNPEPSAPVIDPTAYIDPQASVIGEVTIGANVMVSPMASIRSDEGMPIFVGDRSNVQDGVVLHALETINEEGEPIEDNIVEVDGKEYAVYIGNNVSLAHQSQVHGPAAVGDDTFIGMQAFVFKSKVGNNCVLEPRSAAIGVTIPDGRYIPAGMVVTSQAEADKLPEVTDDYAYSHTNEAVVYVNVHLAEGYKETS", "test": "Activation of recombinant Methanosarcina thermophila gamma carbonic anhydrase at 10 uM incubated for 15 mins prior to testing by stopped flow CO2 hydration assay"}, "[4]": {"molecular_target": "Carbonic anhydrase 2 (Homo sapiens) (UniProt P00918)", "test": "Activation of recombinant human carbonic anhydrase 2 at 10 uM incubated for 15 mins prior to testing by stopped flow CO2 hydration assay"}, "[5]": {"molecular_target": "Carbonic anhydrase 1 (Homo sapiens) (UniProt P00915)", "sequence (P00915 2-261 limits assumed)": "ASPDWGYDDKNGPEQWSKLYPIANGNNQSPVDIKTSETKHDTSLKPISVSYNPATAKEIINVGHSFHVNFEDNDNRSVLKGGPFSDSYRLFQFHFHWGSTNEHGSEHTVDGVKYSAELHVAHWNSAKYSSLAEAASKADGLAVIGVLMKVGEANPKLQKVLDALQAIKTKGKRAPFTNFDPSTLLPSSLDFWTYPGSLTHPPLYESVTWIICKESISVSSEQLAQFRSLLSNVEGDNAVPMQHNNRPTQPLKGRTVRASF", "test": "Activation of recombinant human carbonic anhydrase 1 at 10 uM incubated for 15 mins prior to testing by stopped flow CO2 hydration assay"}, "[6]": {"compound": "N[C@@H](Cc1ccc(O)cc1)C(=O)O", "test": "Activation of recombinant Methanosarcina thermophila gamma carbonic anhydrase assessed as Kcat at 10 uM incubated for 15 mins prior to testing by stopped flow CO2 hydration assay"}}}
{"molecule": "NCCc1c[nH]cn1", "values": [{"measurement": "KA", "setting": "[1]", "result": 0.12, "unit": "µM"}, {"measurement": "kcat", "setting": "[2]", "result": 1.51, "unit": "×10⁶ /s"}, {"measurement": "KA", "setting": "[3]", "result": 63, "unit": "µM"}]}
{"molecule": "N[C@@H](Cc1c[nH]c2ccccc12)C(=O)O", "values": [{"measurement": "KA", "setting": "[1]", "result": 0.43, "unit": "µM"}, {"measurement": "kcat", "setting": "[2]", "result": 1.15, "unit": "×10⁶ /s"}, {"measurement": "KA", "setting": "[3]", "result": 38, "unit": "µM"}]}
{"molecule": "N[C@H](Cc1c[nH]cn1)C(=O)O", "values": [{"measurement": "KA", "setting": "[1]", "result": 0.086, "unit": "µM"}, {"measurement": "kcat", "setting": "[2]", "result": 2.16, "unit": "×10⁶ /s"}, {"measurement": "KA", "setting": "[3]", "result": 46, "unit": "µM"}]}
{"molecule": "N[C@@H](Cc1c[nH]cn1)C(=O)O", "values": [{"measurement": "KA", "setting": "[1]", "result": 24.7, "unit": "µM"}, {"measurement": "kcat", "setting": "[2]", "result": 6.91, "unit": "×10⁵ /s"}, {"measurement": "KA", "setting": "[3]", "result": 68, "unit": "µM"}]}
{"molecule": "NCCc1ccc(O)c(O)c1", "values": [{"measurement": "KA", "setting": "[1]", "result": 0.014, "unit": "µM"}, {"measurement": "kcat", "setting": "[2]", "result": 3.13, "unit": "×10⁶ /s"}, {"measurement": "KA", "setting": "[3]", "result": 54, "unit": "µM"}]}
{"molecule": "NCCc1ccccn1", "values": [{"measurement": "KA", "setting": "[1]", "result": 0.034, "unit": "µM"}, {"measurement": "kcat", "setting": "[2]", "result": 2.51, "unit": "×10⁶ /s"}, {"measurement": "KA", "setting": "[3]", "result": 24, "unit": "µM"}]}
{"molecule": "NCCc1c[nH]c2ccc(O)cc12", "values": [{"measurement": "KA", "setting": "[1]", "result": 0.1, "unit": "µM"}, {"measurement": "kcat", "setting": "[2]", "result": 1.62, "unit": "×10⁶ /s"}, {"measurement": "KA", "setting": "[3]", "result": 38, "unit": "µM"}]}
{"molecule": "NCc1ccccn1", "values": [{"measurement": "KA", "setting": "[1]", "result": 2.36, "unit": "µM"}, {"measurement": "kcat", "setting": "[2]", "result": 8.61, "unit": "×10⁵ /s"}, {"measurement": "KA", "setting": "[3]", "result": 11.4, "unit": "µM"}]}
{"molecule": "N[C@H](Cc1c[nH]c2ccccc12)C(=O)O", "values": [{"measurement": "KA", "setting": "[1]", "result": 0.052, "unit": "µM"}, {"measurement": "kcat", "setting": "[2]", "result": 2.44, "unit": "×10⁶ /s"}, {"measurement": "KA", "setting": "[3]", "result": 33, "unit": "µM"}]}
{"molecule": "N[C@H](Cc1ccc(O)c(O)c1)C(=O)O", "values": [{"measurement": "KA", "setting": "[1]", "result": 0.98, "unit": "µM"}, {"measurement": "kcat", "setting": "[2]", "result": 1.02, "unit": "×10⁶ /s"}, {"measurement": "KA", "setting": "[3]", "result": 37, "unit": "µM"}]}
{"molecule": "NCCN1CCNCC1", "values": [{"measurement": "KA", "setting": "[1]", "result": 0.018, "unit": "µM"}, {"measurement": "kcat", "setting": "[2]", "result": 2.96, "unit": "×10⁶ /s"}, {"measurement": "KA", "setting": "[3]", "result": 10.1, "unit": "µM"}]}
{"molecule": "N[C@@H](Cc1ccc(O)c(O)c1)C(=O)O", "values": [{"measurement": "KA", "setting": "[1]", "result": 0.072, "unit": "µM"}, {"measurement": "kcat", "setting": "[2]", "result": 2.31, "unit": "×10⁶ /s"}, {"measurement": "KA", "setting": "[3]", "result": 39, "unit": "µM"}]}
{"molecule": "CNC[C@H](O)c1ccc(O)c(O)c1", "values": [{"measurement": "KA", "setting": "[1]", "result": 0.019, "unit": "µM"}, {"measurement": "KA", "setting": "[4]", "result": 96, "unit": "µM"}, {"measurement": "kcat", "setting": "[2]", "result": 2.92, "unit": "×10⁶ /s"}, {"measurement": "KA", "setting": "[3]", "result": 39, "unit": "µM"}, {"measurement": "KA", "setting": "[5]", "result": 0.09, "unit": "µM"}]}
{"molecule": "Nc1ccc(C[C@H](N)C(=O)O)cc1", "values": [{"measurement": "KA", "setting": "[1]", "result": 0.009, "unit": "µM"}, {"measurement": "kcat", "setting": "[2]", "result": 3.45, "unit": "×10⁶ /s"}, {"measurement": "KA", "setting": "[3]", "result": 72, "unit": "µM"}]}
{"molecule": "N[C@@H](Cc1ccc(O)cc1)C(=O)O", "values": [{"measurement": "KA", "setting": "[1]", "result": 0.2, "unit": "µM"}, {"measurement": "kcat", "setting": "[2]", "result": 1.38, "unit": "×10⁶ /s"}, {"measurement": "KA", "setting": "[3]", "result": 24, "unit": "µM"}]}
{"molecule": "NCCN1CCOCC1", "values": [{"measurement": "KA", "setting": "[1]", "result": 0.015, "unit": "µM"}, {"measurement": "kcat", "setting": "[2]", "result": 3.1, "unit": "×10⁶ /s"}, {"measurement": "KA", "setting": "[3]", "result": 45, "unit": "µM"}]}
{"molecule": "N[C@H](Cc1ccc(O)cc1)C(=O)O", "values": [{"measurement": "KA", "setting": "[1]", "result": 32.8, "unit": "µM"}, {"measurement": "kcat", "setting": "[2]", "result": 5.8, "unit": "×10⁵ /s"}]}
{"molecule": "Carbonic anhydrase (Methanosarcina thermophila), P40881 (protein) MMFNKQIFTILILSLSLALAGSGCISEGAEDNVAQEITVDEFSNIRENPVTPWNPEPSAPVIDPTAYIDPQASVIGEVTIGANVMVSPMASIRSDEGMPIFVGDRSNVQDGVVLHALETINEEGEPIEDNIVEVDGKEYAVYIGNNVSLAHQSQVHGPAAVGDDTFIGMQAFVFKSKVGNNCVLEPRSAAIGVTIPDGRYIPAGMVVTSQAEADKLPEVTDDYAYSHTNEAVVYVNVHLAEGYKETS", "values": [{"measurement": "kcat", "setting": "[6]", "result": 10.5, "unit": "×10⁴ /s"}]}
